We go through nine compounds from ChEMBL document CHEMBL3046754, “New brassinosteroid analogs having nitrogenated functionalities at C3 to provide more information about the brassinosteroidreceptor interaction” (2004).

What all share (type): functional
Assay [1] deals with Oryza sativa. The assay can be described thus: Growth regulating activity in Oryza sativa (rice) Bahia cultivar seedlings assessed as interior angle between leaf lamina of second leaf and its leaf sheath at 1 ug/plant applied onto second lamina joint of plant sheath measured after 2 days by Oryza sativa lamina inclination test.
Assay [2] relates to Oryza sativa. The assay can be described thus: Growth regulating activity in Oryza sativa (rice) Bahia cultivar seedlings assessed as interior angle between leaf lamina of second leaf and its leaf sheath at 0.01 ug/plant applied onto second lamina joint of plant sheath measured after 2 days by Oryza sativa lamina inclination test.
Assay [3] relates to Oryza sativa. The assay can be described thus: Growth regulating activity in Oryza sativa (rice) Bahia cultivar seedlings assessed as interior angle between leaf lamina of second leaf and its leaf sheath at 0.5 ug/plant applied onto second lamina joint of plant sheath measured after 2 days by Oryza sativa lamina inclination test.
The test system of assay [4] is Oryza sativa. The assay can be described thus: Growth regulating activity in Oryza sativa (rice) Bahia cultivar seedlings assessed as interior angle between leaf lamina of second leaf and its leaf sheath at 0.1 ug/plant applied onto second lamina joint of plant sheath measured after 2 days by Oryza sativa lamina inclination test.
Assay [5] deals with Oryza sativa. The assay can be described thus: Growth regulating activity in Oryza sativa (rice) Bahia cultivar seedlings assessed as interior angle between leaf lamina of second leaf and its leaf sheath at 0.05 ug/plant applied onto second lamina joint of plant sheath measured after 2 days by Oryza sativa lamina inclination test.
Assay [6] has as its system Oryza sativa. The assay can be described thus: Growth regulating activity in Oryza sativa (rice) Bahia cultivar seedlings assessed as interior angle between leaf lamina of second leaf and its leaf sheath at 0.02 ug/plant applied onto second lamina joint of plant sheath measured after 2 days by Oryza sativa lamina inclination test.

In the case of `CC[C@@H](C(C)C)[C@H](O)[C@@H](O)[C@@H](C)[C@H]1CC[C@H]2[C@@H]3COC(=O)[C@H]4C[C@H](N)CC[C@]4(C)[C@H]3CC[C@]12C`, the Activity in the assay with Oryza sativa [1] was found to be 5 degree.
Take `CC[C@@H](C(C)C)[C@@H](O)[C@H](O)[C@@H](C)[C@H]1CC[C@H]2[C@@H]3CC(=O)[C@H]4C[C@H](O)CC[C@]4(C)[C@H]3CC[C@]12C`: the Activity in the assay on Oryza sativa [2] amounted to 46 degree; in the assay with Oryza sativa [3], 76 degree; in the assay with Oryza sativa [1], 85 degree; in the assay with Oryza sativa [4] it was 59 degree; with Oryza sativa [5], 65 degree.
Regarding `CC[C@@H](C(C)C)[C@@H](O)[C@H](O)[C@@H](C)[C@H]1CC[C@H]2[C@@H]3COC(=O)[C@H]4C[C@H](N)CC[C@]4(C)[C@H]3CC[C@]12C`, the Activity is recorded as 31 degree with Oryza sativa [3], 55 degree in the assay with Oryza sativa [1] and 16 degree with Oryza sativa [4].
With `CC[C@@H](C(C)C)[C@H](O)[C@@H](O)[C@@H](C)[C@H]1CC[C@H]2[C@@H]3CC(=O)[C@H]4C[C@H](N)CC[C@]4(C)[C@H]3CC[C@]12C`, in the assay on Oryza sativa [1], the Activity was found to be 3 degree.
On the same count and under the same terms, in the case of `CC[C@@H](C(C)C)[C@@H](O)[C@H](O)[C@@H](C)[C@H]1CC[C@H]2[C@@H]3CC(=O)[C@H]4C[C@H](N)CC[C@]4(C)[C@H]3CC[C@]12C` it was 23 degree.
Take `CC[C@@H](C(C)C)[C@H](O)[C@@H](O)[C@@H](C)[C@H]1CC[C@H]2[C@@H]3COC(=O)[C@H]4C[C@H](N=[N+]=[N-])CC[C@]4(C)[C@H]3CC[C@]12C`: the Activity in the assay with Oryza sativa [3] worked out at 17 degree; in the assay on Oryza sativa [1] it was 48 degree.
On to `CC[C@@H](C(C)C)[C@@H](O)[C@H](O)[C@@H](C)[C@H]1CC[C@H]2[C@@H]3COC(=O)[C@H]4C[C@H](N=[N+]=[N-])CC[C@]4(C)[C@H]3CC[C@]12C`, for which the Activity in the assay on Oryza sativa [6] is given as 44 degree; in the assay with Oryza sativa [2] it was 37 degree; in the assay with Oryza sativa [3], 94 degree; in the assay on Oryza sativa [1], 106 degree; in the assay on Oryza sativa [4] it was 86 degree; in the assay on Oryza sativa [5], 74 degree.
As to `CC[C@@H](C(C)C)[C@H](O)[C@@H](O)[C@@H](C)[C@H]1CC[C@H]2[C@@H]3CC(=O)[C@H]4C[C@H](N=[N+]=[N-])CC[C@]4(C)[C@H]3CC[C@]12C`, the Activity in the assay with Oryza sativa [1] worked out at 1 degree.
Turning to `CC[C@@H](C(C)C)[C@@H](O)[C@H](O)[C@@H](C)[C@H]1CC[C@H]2[C@@H]3CC(=O)[C@H]4C[C@H](N=[N+]=[N-])CC[C@]4(C)[C@H]3CC[C@]12C`, the Activity was determined as 17 degree with Oryza sativa [2]; 64 degree with Oryza sativa [3]; 75 degree in the assay on Oryza sativa [1]; 30 degree with Oryza sativa [4]; 24 degree in the assay on Oryza sativa [5].
